Experimental data: article PMC12430429, “Synthesis, Structure, DNA/BSA Binding, DNA Cleaving, Cytotoxic and SOD Mimetic Activities of Copper(II) Complexes Derived from Methoxybenzylamine Schiff Base Ligands” (Molecules, 2025)
Read-outs that look alike come from different tables or passages of the source.

Experiment: SOD mimetic activity / radical scavenging assay (INT method)
Type: biochemical
Conditions: for Activity at c1 (%), inhibition of radical transfer to INT: c1 = 0.572 mM
Description: The radical scavenging ability with respect to the SOD mimetic activity of the prepared complexes was determined by the INT method. This method is based on a competitive reaction with the superoxide anion radical from KO2 between the measured compound (complex) and 2-(4-Iodophenyl)-3-(4-nitrophenyl)-5-phenyl-2H-tetrazolium chloride (INT). INT reacts with the single electron of O2^− and produces blue-green formazane detected as light absorption at 500 nm. Complexes with good antiradical activity also react with O2^−, and as a result of this, less formazane is formed.
The first type of antiradical activity measurements involved the determination of inhibition percent values of electron transfer on INT at specific concentrations (Table 9). Two concentrations were selected to achieve good solubility of the complexes (4 and 1 mM for 4a and 4c, 2 and 1 mM for 4b). The complex 4b dissolved readily at a concentration of 4 mM, but the mixture was very dark, making measurements at 500 nm difficult. Therefore, a less concentrated initial solution was used (2 mM) as the higher concentration. In total, 0.5 mL of the initial solutions was used to prepare sample solutions that also contained INT and KO2 solutions and DMSO with an overall volume of 3.5 mL. The resulting concentrations were c1 = 0.572 mM, c1* = 0.286 mM and c2 = 0.143 mM, respectively. Complexes 4a and 4c once again provided high percentages at c1 (approximately 96–99%) but the activity dropped below 24% at c2, while complex 4b maintained mediocre activity at both concentrations. It seems that the concentration increase had only a small effect on the activity of 4b; something similar was also observed in the DNA cleavage study for complex 4b. The complexes were compared with the model compound cystamine, which was used as a standard for superoxide antiradical scavenging due to the presence of a free […] group, which is also present in glutathione.
To improve the comparability of SOD mimetic activity, IC50 concentrations were determined by performing a series of measurements with decreasing concentration. IC50 values were calculated from the trend function equation as the concentration with 50% inhibition of electron transfer on INT (Table 10).
The method is based on the agent 2-(4-Iodophenyl)-3-(4-nitrophenyl)-5-phenyl-2H-tetrazolium chloride (INT), able to scavenge a superoxide radical anion from KO2. The reaction produces a blue-green formazane, which is detected as light absorption at 500 nm. The radical scavengers (measured complexes) compete with INT for radicals and reduce the formation of formazane and light absorption at 500 nm. Antiradical activity was measured on a Synergy HT BioTek spectrophotometer. DMSO was used as the solvent for the complex and KO2 (saturated solution). The INT initial solution (4 M) was prepared in a sodium tetraborate buffer solution with pH adjusted to 7.1 with HCl.
For each measurement, an initial solution of the sample (0.5 mL) of a specific concentration (4–0.1 mM) was prepared in DMSO. Due to the addition of INT (0.5 mL) and KO2 (0.5 mL) solutions and additional DMSO (2 mL), the concentrations of the measured complexes decreased seven times (3.5 mL of total mixture). Each result was the average value of three parallel measurements expressed with a standard deviation (more information in the Supplementary Materials). For the determination of SOD-IC50, several measurements with decreasing sample concentration were performed. […] A linear trend function of the percentage of inhibition and negative logarithm of concentration was used to calculate the SOD-IC50 value as the concentration with 50% inhibition of INT–formazane formation. […]
Green: 5c 5 mM (S. cerevisiae 1x10^9 cells /ml + 0.5 ml 0.9% NaCl + 0.5 ml 5c + 0.1 ml Resazurin OX) measured in time
S6. SOD Mimetic A ctivity A ssay
For each measurement, an initial solution of the sample of a specific concentration was prepared […]

[1] = 50% inhibition of electron transfer on INT, read-out: SOD-IC50

Structure (SMILES)	IC50 [1] [µM]	IC50 (INT method, read-out: concentration of 50% inhibition (SOD-IC50), given as range) [µM]	Activity at c1* (%), inhibition of radical transfer to INT (c1* = 0.286 mM (reduced for complex 4b))	Activity at c2 (%), inhibition of radical transfer to INT (c2 = 0.143 mM) [%]	Activity at c1 (%), inhibition of radical transfer to INT [%]
COc1cccc(CN=Cc2ccccc2[O][Cu][O]c2ccccc2C=NCc2cccc(OC)c2)c1 [Complex 4b, [Cu (Sal-3-MeOBn)2]]	1090 ± 56	> 1000	40.1 ± 1.9 * %	35.8 ± 1.3	–
COc1ccc(CN=Cc2ccccc2[O-])cc1.COc1ccc(CN=Cc2ccccc2[O-])cc1.[Cl-].[Cl-].[Cu+2].[Cu+2] [Complex 4c, [Cu2 (Sal-4-MeOBn)2 Cl2]]	189 ± 11	–	–	–	98.9 ± 0.5
COc1ccccc1CN=Cc1ccccc1[O-].COc1ccccc1CN=Cc1ccccc1[O-].[Cl-].[Cl-].[Cu+2].[Cu+2] [Complex 4a, [Cu2 (Sal-2-MeOBn)2 Cl2]]	242 ± 1	–	–	–	95.8 ± 2.2
